For orientation: EC50 means the concentration needed to bring the measured effect to its halfway point.

For this experiment, the target named is T1, CFTR (Homo sapiens, UniProt P13569, DEL508-508).
T1 construct: endogenous in cells; host or cells: primary human bronchial epithelial cells from CF subjects (F508del/MF-HBE), differentiated at air-liquid interface
The experiment can be described thus: HBE assay: Ussing chamber assay of CFTR-mediated short-circuit currents. The conditions noted are these: for EC50: read-out: HBE EC50. The class given is cell-based. The gist of the method:
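CFTR-mediated Isc (μA/cm²) equals the peak response to apical 20 μM forskolin minus the residual after a 20 μM each BPO/GlyH-101/CFTR inhibitor 172 cocktail, recorded in Ussing chambers at Vhold 0 mV, 37 °C, pH 7.4, with 30 μM apical amiloride. Cells were F508del/MF HBE cultures preincubated 18-24 h with corrector (concentration range or 10 μM) plus 1 μM ivacaftor in 20% human serum.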

Where [1] appears, read: Table 12, read-out: HBE Max Activity (%).
Where [2] appears, read: Table 12, read-out: HBE Activity at 10 μM (%).
Setting [3] is: Table 11, read-out: HBE Max Activity (%).
Where [4] appears, read: Table 10, read-out: HBE activity at 10 (μM) (%).
Setting [5] is: Table 10, read-out: HBE Max activity (%).

Read-outs that look alike come from different tables or passages of the source.

T1 sequence (P13569 with tags, fused parts or gaps DEL508-508): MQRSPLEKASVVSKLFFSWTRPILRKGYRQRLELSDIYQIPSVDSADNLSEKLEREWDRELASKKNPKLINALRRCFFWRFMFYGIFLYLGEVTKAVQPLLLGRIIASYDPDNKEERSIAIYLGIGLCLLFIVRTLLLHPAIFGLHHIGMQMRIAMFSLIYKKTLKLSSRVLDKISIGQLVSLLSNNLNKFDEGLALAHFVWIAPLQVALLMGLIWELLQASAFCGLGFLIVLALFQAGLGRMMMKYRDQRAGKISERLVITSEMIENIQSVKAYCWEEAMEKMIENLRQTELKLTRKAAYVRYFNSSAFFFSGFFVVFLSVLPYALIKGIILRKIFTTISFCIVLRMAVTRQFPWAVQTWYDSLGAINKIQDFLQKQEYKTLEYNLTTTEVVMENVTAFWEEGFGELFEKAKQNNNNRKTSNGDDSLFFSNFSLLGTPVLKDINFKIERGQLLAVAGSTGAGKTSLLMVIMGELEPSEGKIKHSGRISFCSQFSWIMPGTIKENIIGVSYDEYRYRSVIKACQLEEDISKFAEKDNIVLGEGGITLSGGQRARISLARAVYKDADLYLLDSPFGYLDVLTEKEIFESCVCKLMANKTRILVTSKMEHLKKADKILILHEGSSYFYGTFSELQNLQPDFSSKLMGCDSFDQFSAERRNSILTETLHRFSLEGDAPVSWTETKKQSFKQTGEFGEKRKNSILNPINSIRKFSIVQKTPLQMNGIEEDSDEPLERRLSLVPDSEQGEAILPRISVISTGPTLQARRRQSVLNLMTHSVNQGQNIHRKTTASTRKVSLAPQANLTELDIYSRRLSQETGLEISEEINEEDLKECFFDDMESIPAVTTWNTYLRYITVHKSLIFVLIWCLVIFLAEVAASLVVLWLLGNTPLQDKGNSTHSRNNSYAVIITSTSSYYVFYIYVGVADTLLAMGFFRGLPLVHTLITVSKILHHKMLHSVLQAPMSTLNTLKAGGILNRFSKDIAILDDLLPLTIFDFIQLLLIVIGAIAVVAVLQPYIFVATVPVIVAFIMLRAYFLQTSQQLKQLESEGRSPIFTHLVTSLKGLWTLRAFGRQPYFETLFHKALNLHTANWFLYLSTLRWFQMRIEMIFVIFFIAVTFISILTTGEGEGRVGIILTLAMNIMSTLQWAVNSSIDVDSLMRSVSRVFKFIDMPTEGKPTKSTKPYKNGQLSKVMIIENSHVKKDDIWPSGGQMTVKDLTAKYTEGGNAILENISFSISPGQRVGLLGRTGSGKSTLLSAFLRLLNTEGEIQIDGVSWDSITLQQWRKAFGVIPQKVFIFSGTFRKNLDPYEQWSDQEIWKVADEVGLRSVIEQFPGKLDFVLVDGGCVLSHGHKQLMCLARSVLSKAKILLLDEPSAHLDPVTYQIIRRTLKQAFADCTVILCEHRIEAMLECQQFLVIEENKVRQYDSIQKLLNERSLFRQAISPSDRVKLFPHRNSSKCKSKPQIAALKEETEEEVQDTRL

Consider `Cc1cccc(C)c1-c1cc2nc(n1)NS(=O)(=O)c1cccc(c1)C(=O)N(Cc1cncc(N(C)CC3C4(CC4)C34CC4)n1)[C@H](CC(C)(C)C)CO2` [Compound 442], for which, under “Table 12”, the EC50 is under 1 µM. Also, under setting [1], the Emax is over 60%.
In the same order, the values of `Cc1cccc(C)c1-c1cc2nc(n1)NS(=O)(=O)c1cccc(c1)C(=O)N(Cc1cncc(N(C)C34CC(C3)C4)n1)[C@H](CC(C)(C)C)CO2` [Compound 443] are under 1 µM and over 60%.
The like results for `COCC(C)N(C)c1cncc(CN2C(=O)c3cccc(c3)S(=O)(=O)Nc3nc(cc(-c4c(C)cccc4C)n3)OC[C@H]2CC(C)(C)C)n1` (stereo partly shown) [Compound 444] were, in that order, under 1 µM and over 60%.
The like results for `Cc1cccc(C)c1-c1cc2nc(n1)NS(=O)(=O)c1cccc(c1)C(=O)N(Cc1nccc(N(C)C3CC4(CCC4)C3)n1)[C@H](CC(C)(C)C)CO2` [Compound 445] were, in that order, under 1 µM and over 60%.
Take `COC[C@@H](C)N(C)c1ccnc(CN2C(=O)c3cccc(c3)S(=O)(=O)Nc3nc(cc(-c4c(C)cccc4C)n3)OC[C@H]2CC(C)(C)C)n1` [Compound 446]: under “Table 12”, the EC50 is under 1 µM. Under setting [1], the Emax is over 60%.
As for `Cc1cccc(C)c1-c1cc2nc(n1)NS(=O)(=O)c1cccc(c1)C(=O)N(Cc1nccc(N(C)C34CC(C3)C4)n1)[C@H](CC(C)(C)C)CO2` [Compound 447], the activation at 10 µM under setting [2] was over 600%.
Same read-out and setting: for `COCC(C)N(C)c1ccnc(CN2C(=O)c3cccc(c3)S(=O)(=O)Nc3nc(cc(-c4c(C)cccc4C)n3)OC[C@H]2CC(C)(C)C)n1` (stereo partly shown) [Compound 448] the value was over 600%; for `Cc1cccc(C)c1-c1cc2nc(n1)NS(=O)(=O)c1cccc(c1)C(=O)N(Cc1cc(C3CCOCC3)[nH]n1)[C@H](CC(C)(C)C)CO2` [Compound 449], over 600%.
In the case of `Cc1cccc(C)c1-c1cc2nc(n1)NS(=O)(=O)c1cccc(c1)C(=O)N(CC1(C(=O)O)CC1)[C@H](CC(C)(C)C)CO2` [Compound 450], under setting [2], the activation at 10 µM is 30 to 60%. Also, under “Table 12”, the EC50 was under 1 µM.
For the molecule `Cc1cccc(C)c1-c1cc2nc(n1)NS(=O)(=O)c1cccc(c1)C(=O)N(Cc1nccc(N(C)[C@@H]3CCC34CCC4)n1)[C@H](CC(C)(C)C)CO2` [Compound 451], the half-maximal effective concentration (EC50) (Table 12) was under 1 µM. Further, the Emax under setting [1] is over 60%.
In the same order, the values of `Cc1cccc(C)c1-c1cc2nc(n1)NS(=O)(=O)c1cccc(c1)C(=O)N(CC(=O)O)[C@H](CC(C)(C)C)CO2` [Compound 453] are 3 to 30 µM and over 60%.
In the same order, the values of `Cc1cccc(C)c1-c1cc2nc(n1)NS(=O)(=O)c1cccc(c1)C(=O)N(Cc1ccn(CC(C)C)n1)[C@H](CC(C)(C)C)CO2` [Compound 454] are under 1 µM and over 60%.
`Cc1cccc(C)c1-c1cc2nc(n1)NS(=O)(=O)c1cccc(c1)C(=O)N(Cc1cc3n(n1)CCC3)[C@H](CC(C)(C)C)CO2` [Compound 455]: the activation at 10 µM under setting [2] was over 600%.
For `Cc1cccc(C)c1-c1cc2nc(n1)NS(=O)(=O)c1cccc(c1)C(=O)N(Cc1cc3n(n1)CCCO3)[C@H](CC(C)(C)C)CO2` [Compound 456], under setting [2], the activation at 10 µM is over 600%.
Turning to `Cc1cccc(C)c1-c1cc2nc(n1)NS(=O)(=O)c1cccc(c1)C(=O)N(Cc1nc(N(C)CC(C)(C)C)ccc1C(F)(F)F)[C@H](CC(C)(C)C)CO2` [Compound 457], where the note is “Table 12”, the EC50 is under 1 µM. In addition, the Emax under setting [1] is over 60%.
Consider `Cc1cccc(C)c1-c1cc2nc(n1)NS(=O)(=O)c1cccc(c1)C(=O)N(Cc1nc(N(C)C(C)C)ccc1C(F)(F)F)[C@H](CC(C)(C)C)CO2` [Compound 458], for which the activation at 10 µM under setting [2] is over 600%.
For `Cc1cccc(C)c1-c1cc2nc(n1)NS(=O)(=O)c1cccc(c1)C(=O)N(Cc1nccc(N(C)C(C)C)n1)[C@H](CC1CC1)CO2` [Compound 459], where the note is “Table 12”, the EC50 is under 1 µM. Moreover, the Emax under setting [1] was over 60%.
In the same order, the values of `Cc1cccc(C)c1-c1cc2nc(n1)NS(=O)(=O)c1cccc(c1)C(=O)N(Cc1ccn(C3CCCC3)n1)[C@H](CC(C)(C)C)CO2` [Compound 460] are under 1 µM and over 60%.
The like results for `Cc1cccc(C)c1-c1cc2nc(n1)NS(=O)(=O)c1cccc(c1)C(=O)N(Cc1ccn(C3CCC3)n1)[C@H](CC(C)(C)C)CO2` [Compound 461] were, in that order, under 1 µM and over 60%.
For `Cc1cccc(C)c1-c1cc2nc(n1)NS(=O)(=O)c1cccc(c1)C(=O)N(Cc1ncc(N3CCC(C)(C)CC3)cn1)[C@H](CC1CC1)CO2` [Compound 462], the half-maximal effective concentration (EC50) (Table 12) is under 1 µM. Under setting [1], the Emax is over 60%.
For the molecule `Cc1cccc(C)c1-c1cc2nc(n1)NS(=O)(=O)c1cccc(c1)C(=O)N(Cc1cccc(N3CCC[C@H]3C)n1)[C@H](CC1CC1)CO2` [Compound 463], the EC50 (Table 12) was under 1 µM. Also, the Emax under setting [1] was over 60%.
For the molecule `COCCN(C)c1cccc(CCN2C(=O)c3cccc(c3)S(=O)(=O)Nc3nc(cc(-c4c(C)cccc4C)n3)OC[C@H]2CC(C)(C)C)n1` [Compound 464], for the setting “Table 11”, the EC50 is under 1 µM. The Emax under setting [3] is over 60%.
For `Cc1cccc(CN2C(=O)c3cccc(c3)S(=O)(=O)Nc3nc(cc(-c4c(C)cccc4C)n3)OC[C@H]2CC(C)(C)C)n1` [Compound 465], the EC50 (Table 11) was under 1 µM. The Emax under setting [3] was over 60%.
Take `Cc1cccc(C)c1-c1cc2nc(n1)NS(=O)(=O)c1cccc(c1)C(=O)N(Cc1ccnc(N3CCOCC3)c1)[C@H](CC(C)(C)C)CO2` [Compound 466]: the activation at 10 µM under setting [4] was over 60%. Moreover, the Emax under setting [5] was over 60%.
For `Cc1cccc(C)c1-c1cc2nc(n1)NS(=O)(=O)c1cccc(c1)C(=O)N(Cc1ccc(C3CCCCC3)c(C)n1)[C@H](CC(C)(C)C)CO2` [Compound 467], under setting [4], the activation at 10 µM is over 60%.
Regarding `Cc1cccc(C)c1-c1cc2nc(n1)NS(=O)(=O)c1cccc(c1)C(=O)N(Cc1cccc(OCC(C)(C)C)n1)[C@H](CC(C)(C)C)CO2` [Compound 469], under setting [5], the Emax is over 60%.
Still for that read-out and setting: to `Cc1cccc(C)c1-c1cc2nc(n1)NS(=O)(=O)c1cccc(c1)C(=O)N(Cc1cccc(-n3ccc(C(C)(C)C)n3)n1)[C@H](CC(C)(C)C)CO2` [Compound 470] belongs over 60%.
Still for that read-out and setting: to `Cc1cccc(C)c1-c1cc2nc(n1)NS(=O)(=O)c1cccc(c1)C(=O)N(Cc1cccc(NCC(C)(C)C)n1)[C@H](CC(C)(C)C)CO2` [Compound 471] belongs over 60%.
On to `COCCCNc1cccc(CN2C(=O)c3cccc(c3)S(=O)(=O)Nc3nc(cc(-c4c(C)cccc4C)n3)OC[C@H]2CC(C)(C)C)n1` [Compound 472], for which the activation at 10 µM under setting [4] is over 60%. The Emax under setting [5] was over 60%.
Turning to `Cc1cccc(C)c1-c1cc2nc(n1)NS(=O)(=O)c1cccc(c1)C(=O)N(CCc1ccc(N3CCC(C)(C)C3)nc1)[C@H](CC(C)(C)C)CO2` [Compound 473], the EC50 (Table 11) is under 1 µM. Further, under setting [3], the Emax was over 60%.
The like results for `Cc1cccc(C)c1-c1cc2nc(n1)NS(=O)(=O)c1cccc(c1)C(=O)N(Cc1cccc(N3CCC(C)(C)CC3)n1)[C@H](CC(C)(C)C)CO2` [Compound 474] were, in that order, under 1 µM and over 60%.
With `COCCNc1cccc(CN2C(=O)c3cccc(c3)S(=O)(=O)Nc3nc(cc(-c4c(C)cccc4C)n3)OC[C@H]2CC(C)(C)C)n1` [Compound 475], under setting [5], the Emax was over 60%.
On to `Cc1cccc(C)c1-c1cc2nc(n1)NS(=O)(=O)c1cccc(c1)C(=O)N(Cc1ccc(-c3ccccc3)cn1)[C@H](CC(C)(C)C)CO2` [Compound 476], for which, for the setting “Table 10”, the “HBE Max activity (%)” value was “+++ (+++ is >60%)” and the EC50 was 1 to 3 µM.
In the case of `Cc1cccc(C)c1-c1cc2nc(n1)NS(=O)(=O)c1cccc(c1)C(=O)N(Cc1ccc(NCC(C)(C)C)cn1)[C@H](CC(C)(C)C)CO2` [Compound 477], under setting [5], the Emax is over 60%.
The same measure, in the same setting: for `Cc1cccc(C)c1-c1cc2nc(n1)NS(=O)(=O)c1cccc(c1)C(=O)N(Cc1ccc(N3CCN(C)CC3)cn1)[C@H](CC(C)(C)C)CO2` [Compound 478] the value was over 60%.
For `Cc1ccnc(CN2C(=O)c3cccc(c3)S(=O)(=O)Nc3nc(cc(-c4c(C)cccc4C)n3)OC[C@H]2CC(C)(C)C)n1` [Compound 479], the activation at 10 µM under setting [4] was over 60%. In addition, the Emax under setting [5] was over 60%.
Turning to `Cc1cccc(C)c1-c1cc2nc(n1)NS(=O)(=O)c1cccc(c1)C(=O)N(Cc1ccn(C(C)C)n1)[C@H](CC(C)(C)C)CO2` [Compound 480], the Emax under setting [5] was over 60%.
Turning to `Cc1cccc(C)c1-c1cc2nc(n1)NS(=O)(=O)c1cccc(c1)C(=O)N(Cc1cnn(C(C)(C)C)c1)[C@H](CC(C)(C)C)CO2` [Compound 481], the Emax under setting [5] is over 60%.
With `Cc1cccc(C)c1-c1cc2nc(n1)NS(=O)(=O)c1cccc(c1)C(=O)N(Cc1c(C)nn(C(C)(C)C)c1C)[C@H](CC(C)(C)C)CO2` [Compound 482], the activation at 10 µM under setting [4] was over 60%.
As to `Cc1cccc(C)c1-c1cc2nc(n1)NS(=O)(=O)c1cccc(c1)C(=O)N(Cc1c(C)n[nH]c1C)[C@H](CC(C)(C)C)CO2` [Compound 485], the activation at 10 µM under setting [4] was over 60%.
Same read-out and setting: to `Cc1cccc(C)c1-c1nc2nc(c1C)OC[C@@H](CC(C)(C)C)N(Cc1ncc(N(C)C)cc1N(C)C)C(=O)c1cccc(c1)S(=O)(=O)N2` [Compound 486] belongs over 60%.
For `Cc1cccc(C)c1-c1cc2nc(n1)NS(=O)(=O)c1cccc(c1)C(=O)N(Cc1cnn(CC(C)C)c1)[C@H](CC(C)(C)C)CO2` [Compound 487], the Emax under setting [5] is over 60%.
Consider `COCCN(C)c1cccc(CN2C(=O)c3cccc(c3)S(=O)(=O)Nc3nc(cc(-c4c(C)cccc4C)n3)OC[C@H]2CC(C)(C)C)n1` [Compound 488], for which the half-maximal effective concentration (EC50) (Table 10) was under 1 µM. Besides, the Emax under setting [5] was over 60%.
